{
  "source": "patent US20230011398A1",
  "about": "“COMBINATION THERAPY APPROACH TO ELIMINATE HIV INFECTIONS” (priority 2019, published 2023)",
  "key": {"[1]": {"system": "CD4+ T cells with or without infection by HIV-1", "assay": "Western blot of caspases, Bcl-2 family and LC3 after IDB", "type": "cell-based, human", "method": "Western blot. PBMC CD4^+ T cells with or without infection by HIV-1 cultured for 4 days with CCL19 as in FIG. 1a. The cells were then cultured in the absence or presence of 0.1 μM IDB for 24 h. The cells were lysed in lysis buffer containing 50 mM HEPES, pH 7.5, 150 mM NaCl, 1 mM EDTA, 1% Triton X-100, 1X protease inhibitor mixture (Roche Applied Science) and 10 μM Benzyloxycarbonyl-Val-Ala-Asp (OMe) fluoromethylketone (zVAD-FMK, ENZO Life Sciences). The cell lysates were determined by the Bradford assay (Bio-Rad). Samples were used for SDS-PAGE and Western blot analyses by probing with different antibodies: monoclonal antibodies to caspase-9 (1:1,000, M054-3, clone 5B4) and caspase-7 (1:1,000, M053-3, clone 4G2) from Medical & Biological Laboratories; polyclonal rabbit antibodies to Atg-7 (1:1,000, 2631S), cleaved caspase-9 (1:1,000, 52873s), caspase-3 (1:1,000, 9665s); cleaved caspase-3 (1:1,000, 9501s), caspase-6 (1:1,000, 9762s), Mc1-1 (1:1,000, 5453s), Bcl-2 (1:1,000, 4223s), Bcl-xL (1:1,000, 2762s), Bak (1:1,000, 12105s), Bax (1:1,000, 2772s), LC3 (1:1000, 4108s) from Cell Signaling Technology and monoclonal antibody to β-Actin (1:50,000, sc-47778, clone C4) from Santa Cruz Biotechnology. The blots were them incubated with HRP-conjugated goat anti-Mouse IgG1 (1:50,000, 1070-05, Southern Biotech) or HRP-conjugated goat anti-Rabbit IgG (1:50,000, ab6721, Abcam) and developed using SuperSignal West Dura Extended Duration Substrate (ThermoFisher)."}, "[2]": {"system": "PBMCs from HIV-1-infected patients", "assay": "In vitro treatment of PBMCs from HIV-1-infected patients, HIV-1 mRNA by RT-PCR", "type": "cell-based, human", "conditions": "outpatients undergoing ART, no active virus production", "method": "Quantification of HIV-1 mRNA and DNA. HIV-1 mRNA was measured by RT-PCR similar to the described protocols. LTR-GAG was amplified with forward primer (LTR-GAG-AF), 5′-[…]-3′ (SEQ. ID NO. 9) and reverse primer (LTR-GAG-AR), 5′-[…] […]-3′ (SEQ. ID NO. 10), and detected with the LTR-GAG probe, SHEX/[…]/ZEN /[…]/3IABkFQ (SEQ. ID NO. 11). HIV-1 pol-1 was amplified with POL-1 forward primer (POL-1-AF), 5′-[…]-3′ (SEQ. ID NO. 12) and reverse primer (POL-1-AR), 5′-[…]-3′ (SEQ. ID NO. 13), and detected with the pol-1 probe FAM/[…]/ZEN/[…]/3IABKFQ (SEQ. ID NO. 14) in iTaq Universal Probes Supermix (Bio-Rad). The reaction was carried out by iTaq Universal Probes Supermix (Bio-Rad) with a QuantStudio 5 Real-Time PCR System and analyzed with the QuantStudio Design and Analysis Software (Applied Biosystem). Cycle threshold (Ct) values were calibrated using standard curve generated with the standard samples with known amounts of viral copies.\nTreatment of PBMCs from HIV-1-infected patients. PBMCs from HIV-1 patients were resuspended in RPMI complete medium containing and 0.3 ng/ml IL-2 and 50 ng/ml M-CSF and cultured with 0.2 μM BMS-626529, 0.2 μM raltegravir, 25 nM IDB, 20 nM ABT-263, 0.1 μM SAR405 and 0.25 μM JQ1 for 2 days as one cycle of treatments. The cells were then washed and cultures in the same medium for next cycle of culture. […]"}, "[3]": {"conditions": "HIV-1-infected T cells, IDB 24 h"}},
  "data": [
    {"smiles": "CC1=C[C@]23C(=O)[C@@H](C=C(COC(=O)c4ccccc4)[C@@H](O)[C@]2(O)[C@H]1OC(=O)c1ccccc1)[C@H]1[C@@H](C[C@H]3C)C1(C)C", "note": "[IDB, ingenol 3,20-dibenzoate]", "values": [
      {"measurement": "expression of anti-apoptotic Bcl-xL and Mcl-1", "setting": "[1]; CD4+ T cells not infected with HIV-1, IDB 24 h", "result": "increased the expression"},
      {"measurement": "activation of caspase-9, caspase-3, caspase-6 and caspase-7", "setting": "[1]; [3]", "result": "induced the activation"},
      {"measurement": "expression of Bcl-xL and Mcl-1", "setting": "[1]; [3]", "result": "induced the expression of Bcl-xL and Mcl-1"},
      {"measurement": "expression of anti-apoptotic Bcl-2", "setting": "[1]; IDB 24 h", "result": "did not change"},
      {"measurement": "expression of LC3", "setting": "[1]; T cell with or without HIV-1 infections, IDB 24 h", "result": "induced the expression of LC3"},
      {"measurement": "increase in Bcl-xL expression in HIV-1-infected cells", "setting": "[1]; compared with uninfected controls, IDB 24 h", "result": "greater than in uninfected controls"},
      {"measurement": "HIV-1 detection in PBMCs after stimulation with IDB", "setting": "[2]", "result": "could be detected"}
    ]}
  ]
}
